The CheMixHub viscosity set

Experiment: xn = mol fraction of the nth substance listed

CS(C)=O + OCCO
viscosity [mPa·s]
Conditions	298.15 K	303.15 K	308.15 K	313.15 K	318.15 K	323.15 K
100 kPa, x1 = 0.105	12.96	10.76	8.98	7.61	6.51	5.63
100 kPa, x1 = 0.1987	10.61	8.91	7.45	6.39	5.54	4.82
100 kPa, x1 = 0.2971	8.58	7.31	6.14	5.32	4.51	4.09
100 kPa, x1 = 0.3911	6.94	5.97	5.09	4.45	3.86	3.48
100 kPa, x1 = 0.5099	5.28	4.59	4.03	3.56	3.02	2.84
100 kPa, x1 = 0.5932	4.45	3.93	3.46	3.07	2.72	2.48
100 kPa, x1 = 0.702	3.68	3.26	2.91	2.61	2.45	2.13
100 kPa, x1 = 0.7931	3.21	2.86	2.58	2.32	2.24	1.91
100 kPa, x1 = 0.9003	2.74	2.46	2.21	2	1.92	1.67
101 kPa, x1 = 0.0799	–	–	10.2	–	–	–
101 kPa, x1 = 0.206	–	–	9.506	–	–	–
101 kPa, x1 = 0.3426	–	–	8.715	–	–	–
101 kPa, x1 = 0.4387	–	–	8.143	–	–	–
101 kPa, x1 = 0.5397	–	–	7.399	–	–	–
101 kPa, x1 = 0.6459	–	–	6.235	–	–	–
101 kPa, x1 = 0.7517	–	–	4.953	–	–	–
101 kPa, x1 = 0.8456	–	–	3.731	–	–	–
101 kPa, x1 = 0.9271	–	–	2.599	–	–	–
101 kPa, x2 = 0.0621	2.42	2.19	1.98	1.8	1.63	1.5
101 kPa, x2 = 0.1227	3.05	2.66	2.43	2.24	2.02	1.84
101 kPa, x2 = 0.1819	4.26	3.66	3.21	2.8	2.51	2.27
101 kPa, x2 = 0.2394	5.61	4.72	4.02	3.49	3.06	2.73
101 kPa, x2 = 0.2958	7.14	5.91	4.88	4.19	3.56	3.14
101 kPa, x2 = 0.3504	8.45	7.01	5.72	4.83	4.12	–
101 kPa, x2 = 0.404	9.69	7.96	6.43	5.48	4.63	–
101 kPa, x2 = 0.4562	10.8	8.81	7.13	6.01	5.11	–
101 kPa, x2 = 0.5076	11.7	9.54	7.73	6.52	5.52	–
101 kPa, x2 = 0.5568	12.6	10.2	8.27	6.95	5.88	–
101 kPa, x2 = 0.6061	13.3	10.7	8.72	7.33	6.2	–
101 kPa, x2 = 0.6537	14	11.2	9.12	7.65	6.49	–
101 kPa, x2 = 0.7004	14.6	11.6	9.44	7.94	6.72	–
101 kPa, x2 = 0.7461	15.1	12	9.75	8.22	6.93	–
101 kPa, x2 = 0.7906	15.5	12.4	9.99	8.48	7.15	–
101 kPa, x2 = 0.8342	16	12.8	10.2	8.71	7.33	–
101 kPa, x2 = 0.8769	16.5	13.1	10.5	8.95	7.53	–
101 kPa, x2 = 0.9189	16.9	13.4	10.9	9.2	7.71	–
101 kPa, x2 = 0.9599	17.3	13.7	11.1	9.41	7.9	–
